Earlier results in patent US20250283018A1, “TOILET RIM BLOCKS WITH SCENT CHANGE” (SYMRISE AG, priority 2021, published 2025).
Read-outs that look alike come from different tables or passages of the source.

Experiments:
[1] = not given; remark: listed apart in the source
[2] = Table 3, components of POWER PLATIN

Row | Molecule | Bp. [° C.] (list of selected fragrances) | Bp. [° C.] (Table 1, components of MARINA) | Bp. [° C.] [2] | Bp. [° C.] (Table 2, components of PEACH) | also measured
1 | CC1CC(C)(c2ccccc2)OC(C)O1 (stereo not drawn) | 279.2 °C |  |  |  | logP ([1]; list of selected fragrances): 2.79
2 | CCCCC(=CCC#N)CC | 230 °C |  |  |  | logP ([1]; list of selected fragrances): 3.98
3 | CCCC1(C)OC2CC34CC(C(C)(C)C3CCC4C)C2(C)O1 (stereo not drawn) | 336 °C |  |  |  | logP ([1]; list of selected fragrances): 5.94
4 | CC(C)=CCCC(C)CC#N (stereo not drawn) |  | 235 °C |  |  | logP ([1]; Table 1, components of MARINA): 3.55
5 | CC(C=O)Cc1ccc(C(C)C)cc1 (stereo not drawn) | 262 °C |  | 262 °C |  | logP [1, 2]: 3.91; logP ([1]; list of selected fragrances): 3.61
6 | CSC |  |  |  | 37 °C | 
7 | CC(C)=CCCC(C)=CCCc1ccncc1 |  | 307 °C |  |  | logP ([1]; Table 1, components of MARINA): 5.95
8 | CCOC(=O)CC(O)(CC(=O)OCC)C(=O)OCC |  |  |  | 294 °C | 
9 | 3-METHYLBUTYL-CYCLOHEXANOL | 245 °C |  |  |  | logP ([1]; list of selected fragrances): 4.49
10 | C=CC(C)(O)CCC=C(C)CC (mixture of isomers) [ETHYLLINALOOL] |  | 224 °C |  |  | 
11 | CC1(C)[C@@H]2CC[C@@]1(C)[C@H](O)C2 (racemic) [ISOBORNEOL] |  | 211 °C |  |  | 
12 | CC(=O)O[C@@H]1C[C@H]2CC[C@]1(C)C2(C)C (racemic) [ISOBORNYLACETAT] |  | 224 °C |  |  | logP ([1]; Table 1, components of MARINA): 3.86
13 | CC1=CCC(C=CC(C)C(C)O)C1(C)C (stereo in doubt) [EBANOL] |  |  | 274 °C |  | logP [1, 2]: 4.93
14 | CCCCCCC1OC(=O)CC1C (stereo not drawn) [3-METHYL-GAMMA-DECALACTONE] | 293 °C |  |  |  | 
15 | CC(C)C1CC=C(CCC=O)CC1 (stereo not drawn) [3-[4-ISOPROPYLCYCLOHEXEN-1-YL]PROPANAL] | 258 °C |  |  |  | logP ([1]; list of selected fragrances): 4.8
16 | O=C1CCCCCCCCCCCCCCC1 [8-CYCLOHEXADECANONE, 8-cyclohexadecanone] | 323 °C |  |  | 323 °C | logP ([1]; Table 2, components of PEACH): 5.82; logP ([1]; list of selected fragrances): 5.97
17 | CCC(CC)COC(=O)CC1C=CCC1 (stereo not drawn) [(2-CYCLOPENTEN-1-ACETIC ACID-2-ETHYLBUTYL ESTER] | 252 °C |  |  |  | 
18 | C=C(C)C1CC=C(C)C(OC(C)=O)C1 (stereo not drawn) [ACETIC ACID CARVYL ESTER] | 92 °C |  |  |  | logP ([1]; list of selected fragrances): 4.26
19 | CC(=O)OC1CCCCC1C(C)(C)C (stereo not drawn) [AGRUMEX LC] |  | 227 °C | 227 °C | 227 °C | 
20 | CCCCCCCCCC=O [ALDEHYD C10] |  | 208.5 °C | 208.5 °C | 208.5 °C | logP ([1]; Table 1, components of MARINA): 3.76; logP ([1]; Table 2, components of PEACH): 3.76; logP [1, 2]: 3.76
21 | CCCCCC1CCC(=O)O1 (stereo not drawn) [ALDEHYD C18 SOG.] |  |  |  | 250 °C | 
22 | C=CCOC(=O)COCCC(C)C [ALLYLAMYLGLYCOLAT] |  |  | 226 °C |  | 
23 | C=CCOC(=O)CCC1CCCCC1 [ALLYLCYCLOHEXYLPROPIONAT] | 250 °C |  |  |  | 
24 | C=CCOC(=O)COc1ccccc1 [ALLYLPHENOXYACETAT] | 266 °C |  |  | 266 °C | 
25 | CC1(C)CCC[C@]2(C)[C@H]3CCO[C@]3(C)CC[C@@H]12 [AMBROXIDE] |  | 283 °C |  |  | 
26 | C/C=C/c1ccc(OC)cc1 [ANETHOL SUPRA 21.5 CELSIUS] |  |  | 234 °C |  | 
27 | COc1ccc(C=O)cc1 [ANISALDEHYD REIN] |  |  | 248 °C |  | 
28 | CCCCCCC1OC(=O)CC1C (stereo not drawn) [APRIFLOREN ®] |  |  |  | 274 °C | 

Row | Molecule | Bp. [° C.] (list of selected fragrances) | Bp. [° C.] (Table 1, components of MARINA) | Bp. [° C.] [2] | Bp. [° C.] (Table 2, components of PEACH) | also measured
29 | CO[C@]1(C)CC[C@@]23C[C@@H]1C(C)(C)[C@@H]2CC[C@H]3C [CEDRAMBER] |  | 270 °C | 270 °C |  | 
30 | C[C@@H]1CC[C@H]2C(C)(C)[C@H]3C[C@@]12CC[C@@]3(C)O [CEDROL CRIST. NAT.] |  | 283 °C | 283 °C |  | 
31 | CO[C@]1(C)CC[C@@]23C[C@@H]1C(C)(C)[C@@H]2CC[C@H]3C [CEDROL METHYL ETHER] | 270 °C |  |  |  | 
32 | CC(C)=CCCC(C)CCO (stereo not drawn) [CITRONELLOL 950] |  |  | 223 °C |  | 
33 | C=CCOC(=O)COC1CCCCC1 [CYCLOGALBANAT] | 256 °C | 256 °C | 256 °C |  | 
34 | CC(O)COC(C)CO (stereo not drawn) [DIPROPYLENGLYCOL] |  | 231 °C | 231 °C | 231 °C | 
35 | CCCCCC(=O)OCC [ETHYLCAPRONAT] |  |  |  | 166 °C | 
36 | CCOC(=O)C(C)CC (stereo not drawn) [ETHYLMETHYLBUTYRAT-2] |  | 135 °C |  | 135 °C | 
37 | CC12CCC(CC1)C(C)(C)O2 [EUCALYPTOL NAT.] |  | 176 °C |  |  | 
38 | C=CCc1ccc(O)c(OC)c1 [EUGENOL] | 253.2 °C |  | 253.2 °C |  | 
39 | CC12CCC(C1)C(C)(C)C2O (stereo not drawn) [FENCHOL] |  | 212 °C |  |  | 
40 | CCCCCC1C(=O)CCC1CC(=O)OC (stereo not drawn) [HEDION] |  |  | 296 °C | 296 °C | 
41 | CC/C=C\CCO [HEXENOL CIS-3] |  | 157 °C |  | 157 °C | 
42 | CCC/C=C/CO [HEXENOL TRANS-2] |  |  |  | 159 °C | 
43 | CCCCCCOC(C)=O [HEXYLACETAT] |  | 169 °C |  | 169 °C | 
44 | CC12CCC(CC1=O)C2(C)C (stereo not drawn) [KAMPFER DL] |  | 204 °C |  |  | 
45 | CC/C=C\CCOC(=O)OC [LEAFOVERT ®] |  |  |  | 189 °C | 
46 | CC(=O)OC1CC(C)CCC1C(C)C (stereo not drawn) [MENTHYL ACETATE] | 255 °C |  |  |  | 
47 | CCCCCC1C(=O)CCC1CC(=O)OC (stereo not drawn) [METHYLDIHYDROJASMONATE] | 296 °C |  |  |  | 
48 | CC(=O)c1oc2ccccc2c1C [NEROLIONE] |  |  |  | 272 °C | 
49 | CCCCC1CCC(=O)O1 (stereo not drawn) [OCTALACTON GAMMA] |  |  |  | 234 °C | 
50 | C=CCCC(=O)C(=C)C1CCCCC1 [PHARAONE 10% DPG] |  |  | 0 °C |  | 
51 | CC(=O)OC(C)c1ccccc1 (stereo not drawn) [STYROLYLACETAT] |  | 214 °C |  | 214 °C | 
52 | CCC(C)(O)CCCC(C)C (stereo not drawn) [TETRAHYDROLINALOOL] |  | 197 °C | 197 °C |  | 
53 | CC1=CC(C)C(C=O)CC1 (stereo not drawn) [VERTOCITRAL] |  | 187 °C |  |  | 
54 | BORNEOL L/ISOBORNEOL 65/35 |  |  | 212 °C |  | 
55 | TERPINEOL REIN |  | 219.16 °C |  | 219.16 °C | 
